Values quoted from earlier work, collected in patent US5741892A, “Pentapeptides as antitumor agents” (Basf Aktiengesellschaft, priority 1996, dated 1998).

What was measured:
[1] = tested on: tubulin
[2] = tested on: four different human lymphoma cell lines
[3] = synthetic Dolastatin 10
[4] = tested on: P388 lymphocytic leukemia (PS system) cell line

Substance | inhibition of tubulin polymerization [1] | inhibition of growth of lymphoma cell lines [2] | solubility in aqueous systems [3] | inhibition of cell growth [4]
Dolastatin 10 | effectively inhibit | effectively inhibit | poor solubility in aqueous systems | 
Dolastatin 15 | effectively inhibit | effectively inhibit |  | inhibits the growth
